Measurements reported in patent US11999716B2, “WDR5 inhibitors and modulators” (priority 2018, dated 2024).

system: MV4:11 human cancer cell lines; test: Cellular viability / anti-proliferative activity, CellTiter-Glo, 5 day protocol; type: cell-based; details: Homo sapiens, MV4-11, 120 h, MV4:11 cells; 5 day incubation; CellTiter-Glo; mean of minimum two replicates; read-out: GI50 on cellular proliferation of MV4:11 human cancer cell lines
Procedure, shortened: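 Compounds were tested over 22 two-fold dilutions starting at 30 μM in 0.3% DMSO, with 200 cells per well (7200 cells/mL). Viability was measured by CellTiter-Glo luminescence at day 5.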

SMILES	GI50 [nM]
Cc1cc(CN2CCc3c(cc(Cn4ccn(C)c4=N)cc3-c3ccc(F)cc3C)C2=O)ccc1Cl [Example 28, 2-(4-Chloro-3-methylbenzyl)-5-(4-fluoro-2-methylphenyl)-7-((2-imino-3-methyl-2,3-dihydro-1H-imidazol-1-yl)methyl)-3,4-dihydroisoquinolin-1(2H)-one]	> 938
CCn1cc(CN2CCc3c(cc(Cn4ccnc4C)cc3-c3cn(C)nc3C(F)(F)F)C2=O)c2ccccc21 [Example 187, 2-((1-Ethyl-1H-indol-3-yl)methyl)-7-((2-methyl-1H-imidazol-1-yl)methyl)-5-(1-methyl-3-(trifluoromethyl)-1H-pyrazol-4-yl)-3,4-dihydroisoquinolin-1(2H)-one]	591
Cc1ccnc([C@H](C2CC2)N2CCc3c(cc(Cn4ccn(C)c4=N)cc3-c3cccnc3C(F)(F)F)C2=O)c1 [Example 36, (S)-2-(Cyclopropyl(4-methylpyridin-2-yl)methyl)-7-((2-imino-3-methyl-2,3-dihydro-1H-imidazol-1-yl)methyl)-5-(2-(trifluoromethyl)pyridin-3-yl)-3,4-dihydroisoquinolin-1(2H)-one]	201
CCn1cc(-c2cc(Cn3ccnc3NC)cc3c2CCN([C@@H](C)c2cc(OC)ccn2)C3=O)c(C(F)(F)F)n1 [Example 161, (S)-5-(1-Ethyl-3-(trifluoromethyl)-1H-pyrazol-4-yl)-2-(1-(4-methoxypyridin-2-yl)ethyl)-7-((2-(methylamino)-1H-imidazol-1-yl)methyl)-3,4-dihydroisoquinolin-1(2H)-one]	< 50
CCn1cc(-c2cc(Cn3ccn(C)c3=N)cc3c2CN(Cc2cc(OC)ccn2)C3=O)c(C(F)(F)F)n1 [Example 137, 4-(1-Ethyl-3-(trifluoromethyl)-1H-pyrazol-4-yl)-6-((2-imino-3-methyl-2,3-dihydro-1H-imidazol-1-yl)methyl)-2-((4-methoxypyridin-2-yl)methyl)isoindolin-1-one]	944
Cc1nccn1Cc1cc2c(c(-c3cn(C)nc3C(F)(F)F)c1)CCN(c1ccccc1OC(F)(F)F)C2=O [Example 255, 7-((2-Methyl-1H-imidazol-1-yl)methyl)-5-(1-methyl-3-(trifluoromethyl)-1H-pyrazol-4-yl)-2-(2-(trifluoromethoxy)phenyl)-3,4-dihydroisoquinolin-1(2H)-one]	2790
COc1ccnc([C@H](C)N2CCc3c(cc(Cn4ccnc4C)cc3-c3cncnc3C(F)(F)F)C2=O)c1 [Example 249, (S)-2-(1-(4-Methoxypyridin-2-yl)ethyl)-7-((2-methyl-1H-imidazol-1-yl)methyl)-5-(4-(trifluoromethyl)pyrimidin-5-yl)-3,4-dihydroisoquinolin-1(2H)-one]	1970
COc1cc(CN2CCc3c(cc(Cn4ccn(C)c4=N)cc3-c3ccc(C)nc3C)C2=O)cc(OC)c1 [Example 68, 2-(3,5-Dimethoxybenzyl)-5-(2,6-dimethylpyridin-3-yl)-7-((2-imino-3-methyl-2,3-dihydro-1H-imidazol-1-yl)methyl)-3,4-dihydroisoquinolin-1(2H)-one]	333
Cc1cc(CN2CCc3c(cc(Cn4ccnc4C)cc3-c3cccnc3C)C2=O)ccc1Cl [Example 7, 2-(4-Chloro-3-methylbenzyl)-7-((2-methyl-1H-imidazol-1-yl)methyl)-5-(2-methylpyridin-3-yl)-3,4-dihydroisoquinolin-1(2H)-one]	572
COc1cc(CN2CCc3c(cc(Cn4ccn(C)c4=N)cc3-c3c(C)noc3C)C2=O)cc(OC)c1 [Example 76, 2-(3,5-Dimethoxybenzyl)-5-(3,5-dimethylisoxazol-4-yl)-7-((2-imino-3-methyl-2,3-dihydro-1H-imidazol-1-yl)methyl)-3,4-dihydroisoquinolin-1(2H)-one]	> 938
CCn1cc(-c2cc(Cn3ccnc3C)cc3c2CCN([C@@H](C)c2cc(OC)ccn2)C3=O)c(C(F)(F)F)n1 [Example 156, (S)-5-(1-Ethyl-3-(trifluoromethyl)-1H-pyrazol-4-yl)-2-(1-(4-methoxypyridin-2-yl)ethyl)-7-((2-methyl-1H-imidazol-1-yl)methyl)-3,4-dihydroisoquinolin-1(2H)-one]	< 50
Cc1nccn1Cc1cc2c(c(-c3cn(C)nc3C(F)(F)F)c1)CCN(CC1CCOCC1)C2=O [Example 173, 7-((2-Methyl-1H-imidazol-1-yl)methyl)-5-(1-methyl-3-(trifluoromethyl)-1H-pyrazol-4-yl)-2-((tetrahydro-2H-pyran-4-yl)methyl)-3,4-dihydroisoquinolin-1(2H)-one]	3910
COc1ccnc(CN2CCc3c(cc(Cn4cc5n(c4=N)CCC5)cc3-c3cn(C)nc3C(F)(F)F)C2=O)c1 [Example 62, 7-((3-Imino-6,7-dihydro-3H-pyrrolo[1,2-c]imidazol-2(51/)-yl)methyl)-2-((4-methoxypyridin-2-yl)methyl)-5-(1-methyl-3-(trifluoromethyl)-1H-pyrazol-4-yl)-3,4-dihydroisoquinolin-1(2H)-one]	572
COc1ccnc(CN2Cc3c(cc(Cn4ccn(C)c4=N)cc3C3CC3)C2=O)c1 [Example 136, 4-Cyclopropyl-6-((2-imino-3-methyl-2,3-dihydro-1H-imidazol-1-yl)methyl)-2-((4-methoxypyridin-2-yl)methyl)isoindolin-1-one]	> 938
Cc1cnc(CN2CCc3c(cc(Cn4ccnc4C)cc3-c3cn(C)nc3C(F)(F)F)C2=O)o1 [Example 194, 7-((2-Methyl-1H-imidazol-1-yl)methyl)-5-(1-methyl-3-(trifluoromethyl)-1H-pyrazol-4-yl)-2-((5-methyloxazol-2-yl)methyl)-3,4-dihydroisoquinolin-1(2H)-one]	252
COc1cc(CN2CCc3cc(F)c(Cn4ccn(C)c4=N)cc3C2=O)cc(OC)c1 [Example 25, 2-(3,5-Dimethoxybenzyl)-6-fluoro-7-((2-imino-3-methyl-2,3-dihydro-1H-imidazol-1-yl)methyl)-3,4-dihydroisoquinolin-1(2H)-one]	> 938
CCn1cc(-c2cc(Cn3ccnc3)cc3c2CCN([C@H](c2cc(C)ccn2)C2CC2)C3=O)c(C(F)(F)F)n1 [Example 245, (S)-7-((1H-imidazol-1-yl)methyl)-2-(cyclopropyl(4-methylpyridin-2-yl)methyl)-5-(1-ethyl-3-(trifluoromethyl)-1H-pyrazol-4-yl)-3,4-dihydroisoquinolin-1(2H)-one]	< 50
CCn1cc(-c2cc(Cc3ncc[nH]3)cc3c2CCN([C@@H](C)c2cc(OC)ccn2)C3=O)c(C(F)(F)F)n1 [Example 230, (S)-7-((1H-Imidazol-2-yl)methyl)-5-(1-ethyl-3-(trifluoromethyl)-1H-pyrazol-4-yl)-2-(1-(4-methoxypyridin-2-yl)ethyl)-3,4-dihydroisoquinolin-1(2H)-one]	< 50
Cc1nccn1Cc1cc2c(c(-c3cn(C)nc3C(F)(F)F)c1)CCN(Cc1ccccc1)C2=O [Example 233, 2-Benzyl-7-((2-methyl-1H-imidazol-1-yl)methyl)-5-(1-methyl-3-(trifluoromethyl)-1H-pyrazol-4-yl)-3,4-dihydroisoquinolin-1(2H)-one]	748
COc1ccnc(CN2CCc3c(cc(Cn4ccn(C)c4=N)cc3-c3cn(C)nc3C(F)(F)F)C2=O)c1 [Example 41, 7-((2-Imino-3-methyl-2,3-dihydro-1H-imidazol-1-yl)methyl)-2-((4-methoxypyridin-2-yl)methyl)-5-(1-methyl-3-(trifluoromethyl)-1H-pyrazol-4-yl)-3,4-dihydroisoquinolin-1(2H)-one]	64
COc1ccnc(CN2CCc3c(cc(Cn4ccnc4C4CC4)cc3-c3cn(C)nc3C(F)(F)F)C2=O)c1 [Example 11, 7-((2-Cyclopropyl-1H-imidazol-1-yl)methyl)-2-((4-methoxypyridin-2-yl)methyl)-5-(1-methyl-3-(trifluoromethyl)-1H-pyrazol-4-yl)-3,4-dihydroisoquinolin-1(2H)-one]	54
COc1ccnc(CN2CCc3c(cc(Cn4ccn(C)c4=N)cc3-c3cn(C)nc3C)C2=O)c1 [Example 42, 5-(1,3-Dimethyl-1H-pyrazol-4-yl)-7-((2-imino-3-methyl-2,3-dihydro-1H-imidazol-1-yl)methyl)-2-((4-methoxypyridin-2-yl)methyl)-3,4-dihydroisoquinolin-1(2H)-one]	291
COc1ccnc(CN2CCc3c(cc(CN4CCN(C)C4=N)cc3-c3cn(C)nc3C(F)(F)F)C2=O)c1 [Example 43, 7-((2-Imino-3-methylimidazolidin-1-yl)methyl)-2-((4-methoxypyridin-2-yl)methyl)-5-(1-methyl-3-(trifluoromethyl)-1H-pyrazol-4-yl)-3,4-dihydroisoquinolin-1(2H)-one]	< 50
COc1cc(CN2CCc3c(cc(Cn4ccn(C5CC5)c4=N)cc3-c3ccc(F)cc3C)C2=O)cc(OC)c1 [Example 38, 7-((3-Cyclopropyl-2-imino-2,3-dihydro-1H-imidazol-1-yl)methyl)-2-(3,5-dimethoxybenzyl)-5-(4-fluoro-2-methylphenyl)-3,4-dihydroisoquinolin-1(2H)-one]	95
Cc1nccn1Cc1cc2c(c(-c3cn(C)nc3C(F)(F)F)c1)CCN(Cc1cn(C)c3ccccc13)C2=O [Example 189, 7-((2-Methyl-1H-imidazol-1-yl)methyl)-2-((1-methyl-1H-indol-3-yl)methyl)-5-(1-methyl-3-(trifluoromethyl)-1H-pyrazol-4-yl)-3,4-dihydroisoquinolin-1(2H)-one]	1000

same assay, conditions: Homo sapiens, MV4-11, 120 h, read-out: GI50 on cellular proliferation of MV4:11 human cancer cell lines

SMILES	GI50 [nM]
COc1ccnc(CN2CCc3c(cc(Cc4ncc[nH]4)cc3-c3cn(C)nc3C(F)(F)F)C2=O)c1 [Example 132, 7-((1H-Imidazol-2-yl)methyl)-2-((4-methoxypyridin-2-yl)methyl)-5-(1-methyl-3-(trifluoromethyl)-1H-pyrazol-4-yl)-3,4-dihydroisoquinolin-1(2H)-one]	< 50
